Assay results: patent publication US11642332B2, “(2R,4R)-5-(5′-chloro-2′-fluorobiphenyl-4-yl)-2-hydroxy-4-[(5-methyloxazole-2-carbonyl)amino]pentanoic acid” (THERAVANCE BIOPHARMA R&D IP, LLC, priority 2015, dated 2023)
Read-outs that look alike come from different tables or passages of the source.

Columns and labels:
[1] = IV/PO pharmacokinetic study in rats; format: in vivo, male Sprague-Dawley rats; design: AUC(0-t): concentration or dose not given beside the values; conditions: rat; for AUC(0-t): read-out: AUClast Mean
Procedure: Each rat or dog PK study began with formulation of the test compound. Appropriate masses of each test compound were added into a volume of vehicle (e.g. 5% sodium bicarbonate, 5% dextrose in H2O) such that the final concentration of each compound was appropriate to be dosed at 2 mL/kg. Although a homogenous suspension were acceptable for oral dosing, intravenous dosing solutions were sterile-filtered (0.2 μm) prior to dosing to ensure no particulates were administered.
In the rat study, pre-cannulated male Sprague-Dawley rats (3 per route) between 8 and 10 weeks of age were obtained from Harlan Laboratories (Indianapolis, Ind.). Rats received either a single oral gavage or a single intravenous (via lateral tail vein) dose of the dosing solution. The final dose was typically 0.5-3 mg/kg. Serial blood samples were harvested via the cannula implanted in the jugular vein at 3 minutes, 15 minutes, 30 minutes, 1 hour, 2 hours, 4 hours, 6 hours, and 24 hours post-dose. Sampling was performed either manually or using automated blood samplers. Samples were collected into microtainer tubes containing EDTA as the anticoagulant and were processed to plasma by refrigerated centrifugation.
Plasma samples were extracted with 3 volumes of MeCN containing a suitable internal standard. Extracts were reconstituted into 3 volumes of water containing 1% formic acid, and analyzed via HPLC-coupled MS/MS. Plasma concentration-time data were analyzed using the Phoenix software (Pharsight Corp., St. Louis, Mo.) to calculate pharmacokinetic parameters.
Plasma clearance was determined from the intravenous arm of the study, and represents the rate at which plasma is cleared of drug. It is equal to the dose divided by the area under the plasma concentration-time curve. In addition to plasma clearance, it is also essential for an orally administered drug to reach efficacious systemic levels following oral delivery. Oral bioavailability is a measurement of plasma exposures following oral administration relative to exposures following intravenous administration.

[2] = Renal excretion of Compound 1 in dog; format: in vivo, male beagle dogs; conditions: for Urinary Excretion (approximate % of administered dose excreted in urine) Mean: 0-24 hrs
Procedure: (§1) An important factor for insuring appropriate long term drug dosing and correct steady-state drug concentrations in patients is drug clearance. In general, decreased drug clearance results in higher drug concentrations and greater drug effects. In order to understand renal clearance of Compound 1, the percent of administered dose recovered in urine following a single IV dose was assessed in three animal species. Three separate studies in male Sprague Dawley rats, male beagle dogs and male cynomolgus monkeys, respectively, were conducted and the procedure and experimental results are described below.
Male beagle dogs (N=6, two groups of 3), having body weights of 9.04-10.2 kg and 10.8-11.5 kg, received an IV dose of Compound 1 at 0.1 mg/kg (Group I) and 1.255 mg/kg (Group II) as part of a dosing cassette. Compound 1 was dissolved in PEG-200:ethanol:water (40:10:50) and filtered through a […] polyvinyl difluoride (PVDF) syringe filter prior to administration. The dogs had access to food ad libitum before and after administration of Compound 1. Urine samples were collected on cold packs into pre-weighed containers that were prefilled with 0.5 mL glacial acetic acid. The samples were weighed again and additional glacial acetic acid was added if needed to a final concentration of 2%. The samples were frozen and stored (−80° C.) prior to bioanalysis.
Dog urine concentrations of Compound 1 were determined by LC/MS/MS. Urine study samples (diluted in plasma K2EDTA(1:9)) were vortexed and 25 μL was placed in a 96-well plate. The samples were extracted with 100 μL in acetonitrile with internal standard Glyburide. The extract was centrifuged for 5 minutes at 3100 RPM and 75 μL of supernatant was transferred and mixed with 150 μL water. Samples (12 μL) were injected on a Waters Acquity UPLC BEH C18 (50×2.1 mm, 1.7 μm) column with a flow rate of 0.9 mL/min. Mobile phase A consisted of 95:5:0.1 (v:v:v) water:acetonitrile:formic acid and mobile phase B consisted of 50:50:0.1 (v:v:v) methanol:acetonitrile:formic acid. The gradient elution started with 35% to 90% B from 0.2 to 1.6 min, held at 95% from 1.7 to 2.2 min., followed by a step of 95% to 35% B from 2.20 to 2.30 min. Compound 1 assay range was 0.000100 to 1.00 μg/mL.
The mean amount of urine excreted over a collection period of 24 hrs and the approximate % of administered dose excreted in urine is reported in the table below.

[3] = Renal excretion of Compound 1 in monkey; format: in vivo, male cynomolgus monkeys; conditions: IV 1 mg/kg
Procedure: as §1
Male cynomolgus monkeys (N=3), having body weights of 4.42-5.81 kg, received an IV dose of compound 1 at 1 mg/kg. Compound 1 was dissolved in PEG-200:ethanol:water (40:10:50) and filtered through a […] polyvinyl difluoride (PVDF) syringe filter prior to administration. The monkeys had access to food ad libitum before and after administration of Compound 1. Urine samples were collected on dry ice during the collection interval periods, the sample volumes were recorded, and the urine acidified with acetic acid to a final concentration of approximately 2% acetic acid. Aliquots were obtained and frozen (−70° C.) prior to bioanalysis.
Monkey urine concentrations of Compound 1 were determined by LC/MS/MS. Urine samples were thawed and diluted in plasma K2EDTA (1:4). […]

Cc1cnc(C(=O)N[C@H](Cc2ccc(-c3cc(Cl)ccc3F)cc2)C[C@@H](O)C(=O)O)o1 [Compound 1, (2R,4R)-5-(5′-Chloro-2′-fluorobiphenyl-4-yl)-2-hydroxy-4-[(5-methyloxazole-2-carbonyl)amino]pentanoic Acid]
AUC(0-t) ([1]; male, Sprague-Dawley, plasma, IV): 610 ng·h/mL
bioavailability ([1]; male, Sprague-Dawley, plasma, PO vs IV AUClast): 67%
AUC(0-t) ([1]; male, Sprague-Dawley, plasma, PO): 400 ng·h/mL
CLlast Mean ([1]; IV, dose divided by AUClast): 13.8 mL/min/kg
Amount of Compound 1 Excreted in Urine over Collection Period (0-24 hrs) Mean ([2]; IV 0.1 mg/kg): 15.8 µg
Urinary Excretion (approximate % of administered dose excreted in urine) Mean ([2]; IV 0.1 mg/kg): 0.92%
Amount of Compound 1 Excreted in Urine over Collection Period (0-24 hrs) Mean ([2]; IV 1.26 mg/kg): 103 µg
Urinary Excretion (approximate % of administered dose excreted in urine) Mean ([2]; IV 1.26 mg/kg): 1.67%
Amount of Compound 1 Excreted in Urine over Collection Period (0-24 hrs) Mean [3]: 157 µg
